Structures are written as SMILES.

The first experiment concerns the target T1, KRAS G12C 1-169, his-tagged protein, GDP-loaded (Homo sapiens, UniProt P01116, G12C).
T1 construct: KRAS G12C 1-169, his-tagged protein, GDP-loaded
In words: Covalent binding (% modification) to KRAS G12C by mass spectrometry. As to conditions: covalent binding to KRAS G12C after a ten minute incubation period. The procedure: Test compounds were prepared as 10 mM stock solutions in DMSO (Fisher cat # BP-231-100). KRAS G12C 1-169, his-tagged protein, GDP-loaded was diluted to 2 μm in buffer (20 mM Hepes, 150 mM NaCl, 1 mM MgCl2). Compounds were tested for activity as follows:
Compounds were diluted to 50× final test concentration in DMSO in 96-well storage plates. Compound stock solutions were vortexed before use and observed carefully for any sign of precipitation. Dilutions were as follow: • For 100 μM final compound concentration, compounds were diluted to 5000 μM (5 μl 10 mM compound stock+5 μl DMSO and mixed well by pipetting. • For 30 μM final compound concentration, compounds were diluted to 1500 μM (3 μl 10 mM compound stock+17 μl DMSO) and mixed well by pipetting. • For 10 μM final compound concentration, compounds were diluted to 500 μM (2 μl 10 mM compound stock+38 μl DMSO) and mixed well by pipetting. 49 μl of the stock protein solution was added to each well of a 96-well PCR plate (Fisher cat #1423027). 1 μl of the diluted 50× compounds were added to appropriate wells in the PCR plate using 12-channel pipettor. Reactions were mixed carefully and thoroughly by pipetting up/down with a 200·1 multi-channel pipettor. […] 5 μl of 2% formic acid (Fisher cat # A117) in DI H2O was then added to each well followed by mixing with a pipette. The plate was then resealed with aluminum seal and stored on dry ice until analyzed as described below.
The above described assays were analyzed by mass spectrometry according to one of the following two procedures:
The MS instrument is set to positive polarity, 2 GHz resolution, and low mass (1700) mode and allowed to equilibrate for 30 minutes. The instrument is then calibrated, switched to acquisition mode and the appropriate method loaded.
After another 30 minute equilibration time, a blank batch (i.e., buffer) is run to ensure equipment is operating properly. The samples are thawed at 37° C. for 10 minutes, briefly centrifuged, and transfer to the bench top. Wells A1 and H12 are spiked with 1 uL 500 uM internal standard peptide, and the plates centrifuged at 2000×g for 5 minutes. The method is then run and masses of each individual well recorded.
The masses (for which integration data is desired) for each well are pasted into the platemap and exported from the analysis. Masses for the internal standards are exported as well. The data at 50 ppm is extracted for the +19 charge state, and identity of well A1 is assigned using the internal standard spike and integrated. Peak data is exported as a TOF list and the above steps are repeated individually, for the +20, 21, 22, 23, 24, and 25 charge states.
The masses and peak intensities of KRAS G12C protein species were measured using a Dionex RSLCnano system (Thermo Scientific) connected to a Q Exactive Plus mass spectrometer (Thermo Scientific).
[…] of sample was each loaded onto a Aeris™ 3.6 μm WIDEPORE C4 200 Å, LC Column 50×2.1 mm column maintained at 40° C. at a flow rate of 600 μl min^−1 with […] (0.1% formic acid in acetonitrile). The liquid chromatography conditions were 20% solvent B for 1 min, 20% to 60% solvent B for 1.5 min, 60% to 90% solvent for 0.5 min, 90% solvent B for 0.2 min, 90% to 20% solvent B for 0.2 min, and then equilibrated for 1.6 min before the following sample injection. The flow rate was maintained at 600 μl min^−1 throughout the sample analysis.
The mass spectrometer was operated in profile mode at a resolution of 17500, 5 microscans, using 50 msec max injection time and an AGC target of 1e6, and a full mass range from 800-1850 m/z was recorded. The HCD trapping gas was optimized for maximum sensitivity for intact proteins. The ionization method was electrospray ionization, which used a spray voltage of 4 kV, sheath gas flow set to 50 au, auxiliary gas flow set to 10 au and sweep gas flow set to 1 au. […]
Regarding `C=CC(=O)N1C[C@H](C)N(c2nc(OCCN3CC(F)(F)C3)nc3c(F)c(-c4c(C)ccc5[nH]ncc45)c(Cl)cc23)C[C@H]1C` [Compound 55, 1-((2R,5S)-4-(6-chloro-2-(2-(3,3-difluoroazetidin-1-yl)ethoxy)-8-fluoro-7-(5-methyl-1H-indazol-4-yl)quinazolin-4-yl)-2,5-dimethyl-piperazin-1-yl) prop-2-en-1-one], the Binding % result is “+++ (+++ indicates binding activity greater than 90%)”.

Turning to `C=CC(=O)N1C[C@@H](C)N(c2nc(NC3CCN(C4CC4)CC3)nc3c(F)c(-c4c(C)ccc5[nH]ncc45)c(Cl)cc23)[C@@H](C)C1` [Compound 42, 1-((3S,5R)-4-(6-chloro-2-((1-cyclopropyl-piperidin-4-yl)amino)-8-fluoro-7-(5-methyl-1H-indazol-4-yl)quinazolin-4-yl)-3,5-dimethyl-piperazin-1-yl) prop-2-en-1-one], the Binding % result is reported as “++ (++ indicates binding activity from 50 to 90%)”.

In the case of `C=CC(=O)N1C[C@@H](C)N(c2nc(N3CC(N(C)C)C3)nc3c(F)c(-c4c(O)cccc4F)c(Cl)cc23)[C@@H](C)C1` [Compound 21, 1-((3S,5R)-4-(6-chloro-2-(3-(dimethylamino)azetidin-1-yl)-8-fluoro-7-(2-fluoro-6-hydroxyphenyl)quinazolin-4-yl)-3,5-dimethyl-piperazin-1-yl) prop-2-en-1-one], the Binding % result is “++ (++ indicates binding activity from 50 to 90%)”.

On to `C=CC(=O)N1CCN(c2nc(OCCN3CC(F)(F)C3)nc3c(F)c(-c4c(O)cccc4F)c(Cl)cc23)C[C@H]1C` (atropisomer, axis not shown) [Compound 62, 1-((R)-4-((R)-6-chloro-2-(2-(3,3-difluoroazetidin-1-yl)ethoxy)-8-fluoro-7-(2-fluoro-6-hydroxyphenyl)quinazolin-4-yl)-2-methyl-piperazin-1-yl) prop-2-en-1-one], for which the Binding % entry is reported as “+ (+ indicates binding activity up to 50%)”.

As for `C=CC(=O)N1[C@H](C)CN(c2nc(N)nc3c(F)c(-c4c(C)ccc5cn[nH]c45)c(Cl)cc23)C[C@@H]1C` [Compound 15, 1-((2S,6R)-4-(2-amino-6-chloro-8-fluoro-7-(6-methyl-1H-indazol-7-yl)quinazolin-4-yl)-2,6-dimethyl-piperazin-1-yl) prop-2-en-1-one], the Binding % entry was “++ (++ indicates binding activity from 50 to 90%)”.

On to `C=CC(=O)N1C[C@H](C)N(c2nc(OCCc3ccccn3)nc3c(F)c(-c4c(O)cccc4F)c(Cl)cc23)C[C@H]1C` [Compound 65, 1-((2R,5S)-4-(6-chloro-8-fluoro-7-(2-fluoro-6-hydroxyphenyl)-2-(2-(pyridin-2-yl)ethoxy)quinazolin-4-yl)-2,5-dimethyl-piperazin-1-yl) prop-2-en-1-one], for which the Binding % entry is “+++ (+++ indicates binding activity greater than 90%)”.

`C=CC(=O)N1CCN(c2nc(N)nc3c(F)c(-c4c(O)cccc4F)c(Cl)cc23)C[C@@H]1C` [Compound 3, 1-((2S)-4-(2-amino-6-chloro-8-fluoro-7-(2-fluoro-6-hydroxyphenyl)quinazolin-4-yl)-2-methylpiperazin-1-yl)prop-2-en-1-one]: the Binding % result is reported as “++ (++ indicates binding activity from 50 to 90%)”.

The same experiment, now with this note: covalent binding to KRAS G12C after a three minute incubation period.
For `C=CC(=O)N1C[C@H](C)N(c2nc(Oc3cn[nH]c3)nc3c(F)c(-c4c(C)ccc5[nH]ncc45)c(Cl)cc23)C[C@H]1C` [Compound 223, 1-((2R,5S)-4-(2-(1H-pyrazol-4-yloxy)-6-chloro-8-fluoro-7-(5-methyl-1H-indazol-4-yl)quinazolin-4-yl)-2,5-dimethyl-piperazin-1-yl) prop-2-en-1-one], the Binding % entry is listed as “++ (++ indicates binding activity from 50 to 90%)”.

Regarding `C=CC(=O)N1C[C@H](C)N(c2nc(N3CC(N(C)C)C3)nc3c(F)c(-c4ccccc4C(F)(F)F)c(Cl)cc23)C[C@H]1C` [Compound 168, 1-((2R,5S)-4-(6-chloro-2-(3-(dimethylamino)azetidin-1-yl)-8-fluoro-7-(2-(trifluoromethyl)phenyl)quinazolin-4-yl)-2,5-dimethyl-piperazin-1-yl) prop-2-en-1-one], the Binding % entry was “++ (++ indicates binding activity from 50 to 90%)”.

Consider `C=CC(=O)N1C[C@H](C)N(c2nc(OCCCN(C)C)nc3c(F)c(-c4c(C)ccc5[nH]ncc45)c(Cl)cc23)C[C@H]1C` [Compound 199, 1-((2R,5S)-4-(6-chloro-2-(3-(dimethylamino)propoxy)-8-fluoro-7-(5-methyl-1H-indazol-4-yl)quinazolin-4-yl)-2,5-dimethyl-piperazin-1-yl) prop-2-en-1-one], for which the Binding % entry is “++ (++ indicates binding activity from 50 to 90%)”.

As to `C=CC(=O)N1CCN(c2nc(N3CC(N(CC)CC)C3)nc3c(F)c(-c4c(O)cccc4F)c(Cl)cc23)[C@@H](C)C1` [Compound 174, 1-((3S)-4-(6-chloro-2-(3-(diethylamino)azetidin-1-yl)-8-fluoro-7-(2-fluoro-6-hydroxyphenyl)quinazolin-4-yl)-3-methyl-piperazin-1-yl) prop-2-en-1-one], the Binding % result is reported as “+++ (+++ indicates binding activity greater than 90%)”.

Consider `C=CC(=O)N1C[C@H](C)N(c2nc(N3CC(N(C)C)C3)nc3c(F)c(-c4c(O)cccc4F)c(C(F)(F)F)cc23)C[C@H]1C` [Compound 206, 1-((2R,5S)-4-(2-(3-(dimethylamino)azetidin-1-yl)-8-fluoro-7-(2-fluoro-6-hydroxyphenyl)-6-(trifluoromethyl)quinazolin-4-yl)-2,5-dimethyl-piperazin-1-yl) prop-2-en-1-one], for which the Binding % result was “+++ (+++ indicates binding activity greater than 90%)”.

With `C=CC(=O)N1CCN(c2nc(N3CC(C)(N(C)C)C3)nc3c(F)c(-c4c(O)cccc4F)c(Cl)cc23)[C@@H](C)C1` [Compound 153, 1-((3S)-4-(6-chloro-2-(3-(dimethylamino)-3-methylazetidin-1-yl)-8-fluoro-7-(2-fluoro-6-hydroxyphenyl)quinazolin-4-yl)-3-methyl-piperazin-1-yl) prop-2-en-1-one], the Binding % result is “+++ (+++ indicates binding activity greater than 90%)”.

For `C=CC(=O)N1C[C@H](C)N(c2nc(N3CC(NC)C3)nc3c(F)c(-c4c(C)ccc5[nH]ncc45)c(Cl)cc23)C[C@H]1C` [Compound 188, 1-((2R,5S)-4-(6-chloro-8-fluoro-7-(5-methyl-1H-indazol-4-yl)-2-(3-(methylamino)azetidin-1-yl)quinazolin-4-yl)-2,5-dimethyl-piperazin-1-yl) prop-2-en-1-one], the Binding % entry is “+ (+ indicates binding activity greater than 0% and up to 50%)”.

Consider `C=CC(=O)N1C[C@H](C)N(c2nc(N3CC(C)(N(C)C)C3)nc3c(F)c(-c4c(C)ccc5[nH]ncc45)c(Cl)cc23)C[C@H]1C` [Compound 121, 1-((2R,5S)-4-(6-chloro-2-(3-(dimethylamino)-3-methylazetidin-1-yl)-8-fluoro-7-(5-methyl-1H-indazol-4-yl)quinazolin-4-yl)-2,5-dimethyl-piperazin-1-yl) prop-2-en-1-one], for which the Binding % entry is “++ (++ indicates binding activity from 50 to 90%)”.

On to `C=CC(=O)N1C[C@H](C)N(c2nc(OCCN3CC(F)(F)C3)nc3c(F)c(-c4cc(O)cc5ccccc45)c(Cl)cc23)C[C@H]1C` [Compound 169, 1-((2R,5S)-4-(6-chloro-2-(2-(3,3-difluoroazetidin-1-yl)ethoxy)-8-fluoro-7-(3-hydroxynaphthalen-1-yl)quinazolin-4-yl)-2,5-dimethyl-piperazin-1-yl) prop-2-en-1-one], for which the Binding % entry is recorded as “++ (++ indicates binding activity from 50 to 90%)”.

For the origin of these results see patent US10646488B2 (Araxes Pharma LLC, priority 2016, dated 2020).
